Test results: patent US20230255954A1, “INTERLEUKIN 33 (IL-33) INHIBITION FOR TREATMENT OF CANCER, FIBROSIS AND INFLAMMATION” (The General Hospital Corporation, priority 2020, published 2023)

Key:
p-IRF3 = experiment: Poly (I:C) induced p-IRF3 expression in Pam212 cells; assay type: cell-based, mouse; conditions: Pam212 cells with Poly (I:C)
Description: Cell lysates were prepared in LIPA buffer (Thermo Fisher Scientific, catalog no. 89900) consisting of 1× protease inhibitor cocktail, EDTA-free (Thermo Fisher Scientific, catalog no. A32955). Mice tissues were meshed and lysed by 0.1% TWEEN-(Millipore Sigma, catalog no. P1379) in PBS. Mice tissues were frozen by liquid nitrogen and thaw by incubation at 37° C. for further lysis. Cell lysates were sonicated for […], and then they were centrifugated at 13,200 rpm. After checking the protein concentration of each sample, the same amount of proteins was loaded into Mini-PROTEIN TGX™ Gels (BIO-RAD, Hercules, Calif., catalog no. 456-1083 or 456-1086) with 1× Tris/Glycine/SDS buffer (BIO-RAD, catalog no. 1610732). A few minutes later (according to protein size), they were transferred to Immobilon-P membrane (Millipore Sigma, catalog no. IPVH00010) with Transfer buffer (Boston Bioproducts, Ashland, Mass., catalog no. BP-190). Then, they were incubated 3% bovine serum albumin (Thermo Fisher Scientific, catalog no. BP1600) or 5% Skim milk (BD biosciences, San Jose, Calif., catalog no. 232100) in 1× Tris-Buffered Saline (Boston Bioproducts, catalog no. BM301X) containing 0.1% TWEEN, called TBS-T for 30 min. After the membrane was washed with TBS-T, they were subjected to immunoblot with proper antibodies for overnight at 4° C. […]

[1] = system: Caerulein-injected mouse pancreas; experiment: Caerulein chronic pancreatitis model with pitavastatin; assay type: in vivo
Description: Mice were weighed and injected with 50 μg/kg caerulein (BACHEM, Torrance, Calif., catalog no. 4030451) in 100 μL of PBS intraperitoneally every hour for 6 hours, three days per week for 3 weeks and mice were harvested.
1 mM of pitavastatin was dissolved in DMSO for stock, and then 100 uM was dissolved in PBS with caerulein for mice injection. Mice were injected with caerulein.
Tissue samples were collected and fixed in 4% paraformaldehyde (Millipore Sigma, catalog no. P6148) overnight at 4° C. Next, tissues were dehydrated in ethanol, processed and embedded in paraffin. 5 μm sections paraffin-embedded tissues were placed on slides, deparaffinized and stained with H&E or toluidine blue (for mast cell detection). For immunohistochemistry, antigen retrieval was performed in 500 μL of antigen unmasking solution (VECTOR Laboratories, Burlingame, Calif., catalog no. H3300) diluted in 50 mL water using Cuisinart pressure cooker for 20 min at high pressure. Slides were washed three times for three minutes each in 1×TBS with 0.025% Triton X-100. Sections were blocked with 1% bovine serum albumin (Thermo Fisher Scientific, catalog no. BP1600) and 5% goat serum (Millipore Sigma, catalog no. G9023) for 1 hour. Slides were stained overnight at 4° C. with a primary antibody diluted in TBS containing 1% BSA (Appendix Table S2). […]

Compound: O=C(O)C[C@H](O)C[C@H](O)/C=C/c1c(C2CC2)nc2ccccc2c1-c1ccc(F)cc1 [pitavastatin]
- level of p-IRF3 (p-IRF3): decreased
- severity of pancreatitis ([1]; 100 uM pitavastatin in PBS injected with caerulein, vs severe pancreatitis in caerulein plus carrier): mild pancreatitis
- inflammatory cell infiltrates in pancreas (H&E) ([1]; Caerulein-injected mouse pancreas with or without pitavastatin): reduction
